Results reported in US9936701B2, “Herbicidal compounds” (Syngenta Participations AG, priority 2013, dated 2018).

How the values were obtained:
[1] = tested on: a variety of test species; experiment: Pre-emergence herbicidal activity (glasshouse, sprayed one day after sowing, evaluated after 13 days); assay type: in vivo; design: key: 5=total damage to plant; 0=no damage to plant; settings: application pre-emergence, rate 1000 g/Ha, scale 0-5
In short: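 Visual 0–5 injury score (5 = total damage) taken 13 days after spraying. Treatment applied one day after sowing, before emergence; glasshouse at 24/16 °C day/night, 14 h photoperiod, 65% humidity.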

[2] = tested on: a variety of test species; experiment: Post-emergence herbicidal activity (glasshouse, sprayed after 8 days cultivation, evaluated after 13 days); assay type: in vivo; design: key: 5=total damage to plant; 0=no damage to plant; settings: rate 1000 g/Ha, scale 0-5
In short: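 Pot-grown seedlings sprayed 8 days after sowing with active ingredient in acetone/water (50:50) plus 0.5% Tween 20. Glasshouse at 24/16 °C day/night, 14 h light, 65% humidity, watered twice daily. Damage scored after 13 days on a 0–5 scale (5 = total damage, 0 = none).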

Row | SMILES | melting point [°C] | Pre-emergence herbicidal damage score, ABUTH [1] | Pre-emergence herbicidal damage score, ALOMY [1] | Pre-emergence herbicidal damage score, AMARE [1] | Pre-emergence herbicidal damage score, ECHCG [1] | Pre-emergence herbicidal damage score, SETFA [1] | Pre-emergence herbicidal damage score, ZEAMX [1] | ABUTH (Abutilon theophrasti) damage score, application post-emergence [2] | ALOMY (Alopecurus myosuroides) damage score, application post-emergence [2] | AMARE (Amaranthus retroflexus) damage score, application post-emergence [2] | ECHCG (Echinochloa crus-galli) damage score, application post-emergence [2] | SETFA (Setaria faberi) damage score, application post-emergence [2] | ZEAMX (Zea mays) damage score, application post-emergence [2]
1 | CC1=C(Cl)C(=O)N(c2cc(C(C)(C)CC#N)on2)C1O (stereo not shown) [A72] | 103 to 105 | 5 | 4 | 5 | 5 | 5 | 4 | 5 | 5 | 5 | 5 | 5 | 5
2 | CC1=C(Cl)C(=O)N(c2cc(C(C)(C)C)on2)C1OC(=O)Oc1ccccc1 (stereo not shown) [A84] | 113 to 127 | 5 | 4 | 5 | 5 | 5 | 3 | 5 | 5 | 5 | 5 | 5 | 3
3 | CC1=C(Cl)C(=O)N(c2cc(C(C)(C)C)on2)C1 [A101] | 138 to 139 | 5 | 4 | 5 | 5 | 4 | 3 | 5 | 5 | 5 | 5 | 5 | 4
4 | CC1=C(Cl)C(=O)N(c2noc(C(C)C)c2C#N)C1 [A103] | 112 to 114 | 5 | 4 | 5 | 5 | 5 | 2 | 5 | 4 | 5 | 5 | 5 | 3
5 | CC1=C(Cl)C(=O)N(c2cc(C(C)(C)C#N)on2)C1 [A104] | 141 to 143 | 5 | 4 | 5 | 5 | 5 | 2 | 5 | 5 | 5 | 5 | 5 | 5
6 | COC1=C(Br)C(=O)N(c2cc(C(C)(C)C)on2)C1O (stereo not shown) [B2] | 140 to 160 | 5 | 4 | 5 | 5 | 4 | 1 | 5 | 4 | 5 | 5 | 4 | 5

Further lines, with some results ahead:

Row | melting point [°C] | SMILES | Pre-emergence herbicidal damage score, ABUTH [1] | Pre-emergence herbicidal damage score, ALOMY [1] | Pre-emergence herbicidal damage score, AMARE [1] | Pre-emergence herbicidal damage score, ECHCG [1] | Pre-emergence herbicidal damage score, SETFA [1] | Pre-emergence herbicidal damage score, ZEAMX [1] | ABUTH (Abutilon theophrasti) damage score, application post-emergence [2] | ALOMY (Alopecurus myosuroides) damage score, application post-emergence [2] | AMARE (Amaranthus retroflexus) damage score, application post-emergence [2] | ECHCG (Echinochloa crus-galli) damage score, application post-emergence [2] | SETFA (Setaria faberi) damage score, application post-emergence [2] | ZEAMX (Zea mays) damage score, application post-emergence [2]
7 | 82 to 84 | CCCC1=C(Cl)C(=O)N(c2noc(C(C)(C)CC)c2C#N)C1O (stereo not shown) [A68] | 4 | 3 | 3 | 5 | 5 | 1 | 5 | 5 | 5 | 5 | 5 | 1
8 | 95 to 97 | CCc1onc(N2C(=O)C(Cl)=C(C)C2O)c1C#N (stereo not shown) [A71] | 4 | 3 | 5 | 4 | 5 | 2 | 5 | 4 | 5 | 5 | 5 | 2
9 | 78 to 80 | CCCC1=C(Br)C(=O)N(c2noc(C(C)(C)C)c2C#N)C1OC(=O)CC (stereo not shown) [A73] | 5 | 3 | 5 | 4 | 5 | 3 | 5 | 4 | 5 | 5 | 5 | 2
10 | 84 to 88 | CC1=C(Cl)C(=O)N(c2cc(C(C)(C)C)on2)C1OC(=O)OCC(C)C (stereo not shown) [A80] | 5 | 4 | 5 | 5 | 5 | 3 | 5 | 5 | 5 | 5 | 5 | 3
11 | 130 to 132 | CC(=O)OC1C(C)=C(Cl)C(=O)N1c1noc(C(C)(C)C)c1C#N (stereo not shown) [A94, [1-(5-tert-butyl-4-cyano-isoxazol-3-yl)-4-chloro-3-methyl-5-oxo-2H-pyrrol-2-yl]acetate] | 5 | 4 | 5 | 5 | 5 | 3 | 5 | 5 | 5 | 5 | 5 | 4
12 | 95 to 97 | CC1=C(Cl)C(=O)N(c2noc(C(C)(C)C)c2C#N)C1OC(=O)C(C)(C)C (stereo not shown) [A95] | 4 | 4 | 5 | 5 | 5 | 3 | 5 | 5 | 5 | 5 | 5 | 3
13 | 69 to 71 | CCCC1=C(Cl)C(=O)N(c2noc(C(C)(C)C)c2C#N)C1OC(=O)CC (stereo not shown) [A100] | 5 | 4 | 5 | 5 | 5 | 3 | 5 | 5 | 5 | 5 | 5 | 5
